Measurements: patent US20230271950A1, “ANTIBACTERIAL PICOLINAMIDE COMPOUNDS” (University of Notre Dame Du Lac, priority 2020, published 2023)
In brackets after ≈: the same amount, converted by molar mass. Like-named read-outs stand apart in the source and are kept apart here.

System: C. difficile
Experiment: MIC by broth microdilution against C. difficile strains
Type: cell-based, Clostridioides difficile
Conditions: Clostridioides difficile, read-out: MIC

`Cc1ncc([N+](=O)[O-])n1CCO` [MTZ, metronidazole, reference compound] showed an MIC (ATCC43255, C. difficile ATCC43255 (TcdA+, TcdB+), Table 1) of 0.25 µg/mL (≈ 1.46 µM), an MIC (ATCC43255, C. difficile ATCC43255, Table 7) of 0.25 µg/mL (≈ 1.46 µM) and an MIC (ATCC43255, C. difficile ATCC43255, Table 9) of 0.25 µg/mL (≈ 1.46 µM). The MIC (BAA1803, C. difficile BAA-1803, Table 7) was 0.5 µg/mL (≈ 2.92 µM), the MIC (BAA1803, C. difficile BAA-1803, Table 9) was 0.5 µg/mL (≈ 2.92 µM) and the MIC (BAA1804, C. difficile BAA-1804, Table 7) was 0.25 µg/mL (≈ 1.46 µM). For the same molecule, the MIC (BAA1804, C. difficile BAA-1804, Table 9) was 0.25 µg/mL (≈ 1.46 µM), the MIC (BAA1812, C. difficile BAA-1812, Table 7) was 0.25 µg/mL (≈ 1.46 µM) and the MIC (BAA1812, C. difficile BAA-1812, Table 9) was 0.25 µg/mL (≈ 1.46 µM). For the same molecule, the MIC (BAA1814, C. difficile BAA-1814, Table 7) was 0.25 µg/mL (≈ 1.46 µM), the MIC (BAA1814, C. difficile BAA-1814, Table 9) was 0.25 µg/mL (≈ 1.46 µM) and the MIC (BAA1870, C. difficile BAA-1870 (NAP1, ribotype 27), Table 1) was 0.5 µg/mL (≈ 2.92 µM). It also gave an MIC (BAA1870, C. difficile BAA-1870, Table 7) of 0.5 µg/mL (≈ 2.92 µM), an MIC (BAA1870, C. difficile BAA-1870, Table 9) of 0.5 µg/mL (≈ 2.92 µM) and an MIC (C. difficile 23691 (VR, vancomycin-resistant), Table 7) of 0.5 µg/mL (≈ 2.92 µM). The MIC (C. difficile 23691, clinical isolate resistant to VAN, Table 1) was 0.5 µg/mL (≈ 2.92 µM), the MIC (C. difficile 23691, Table 9) was 0.5 µg/mL (≈ 2.92 µM) and the MIC (C. difficile 23828 (FR, fidaxomicin-resistant), Table 7) was 0.5 µg/mL (≈ 2.92 µM). It also gave an MIC (C. difficile 23828, clinical isolate resistant to FDX, Table 1) of 0.5 µg/mL (≈ 2.92 µM), an MIC (C. difficile 23828, Table 9) of 0.5 µg/mL (≈ 2.92 µM) and an MIC (C. difficile 24531 (VR, vancomycin-resistant), Table 7) of 0.5 µg/mL (≈ 2.92 µM). It also gave an MIC (C. difficile 24531, Table 9) of 0.5 µg/mL (≈ 2.92 µM), an MIC (C. difficile 24923 (VR, vancomycin-resistant), Table 7) of 0.25 µg/mL (≈ 1.46 µM) and an MIC (C. difficile 24923, Table 9) of 0.25 µg/mL (≈ 1.46 µM). The MIC (C. difficile 26675 (MR, metronidazole-resistant), Table 7) was 4 µg/mL (≈ 23.4 µM), the MIC (C. difficile 26675, clinical isolate resistant to MTZ, Table 1) was 4 µg/mL (≈ 23.4 µM) and the MIC (C. difficile 26675, Table 9) was 4 µg/mL (≈ 23.4 µM). It also gave an MIC (C. difficile 27081 (FR, fidaxomicin-resistant), Table 7) of 0.5 µg/mL (≈ 2.92 µM), an MIC (C. difficile 27081, Table 9) of 0.5 µg/mL (≈ 2.92 µM) and an MIC (C. difficile 27173 (MR, metronidazole-resistant), Table 7) of 4 µg/mL (≈ 23.4 µM). The MIC (C. difficile 27173, Table 9) was 4 µg/mL (≈ 23.4 µM), the MIC (C. difficile HM-88, Table 9) was 0.25 µg/mL (≈ 1.46 µM) and the MIC (C. difficile HM-89, Table 9) was 0.25 µg/mL (≈ 1.46 µM). The MIC (C. difficile HM-745, Table 9) was 0.5 µg/mL (≈ 2.92 µM), the MIC (C. difficile HM-746, Table 9) was 0.25 µg/mL (≈ 1.46 µM) and the MIC (C. difficile HM-747, Table 9) was 0.5 µg/mL (≈ 2.92 µM). The MIC (C. difficile NR49292, Table 7) was 0.25 µg/mL (≈ 1.46 µM), the MIC (C. difficile NR49292, Table 9) was 0.25 µg/mL (≈ 1.46 µM) and the MIC (C. difficile NR49294, Table 7) was 0.25 µg/mL (≈ 1.46 µM). The MIC (C. difficile NR49294, Table 9) was 0.25 µg/mL (≈ 1.46 µM), the MIC (C. difficile NR49305, Table 7) was 0.25 µg/mL (≈ 1.46 µM) and the MIC (C. difficile NR49305, Table 9) was 0.25 µg/mL (≈ 1.46 µM). For the same molecule, the MIC (C. difficile NR49318, Table 7) was 0.25 µg/mL (≈ 1.46 µM), the MIC (C. difficile NR49318, Table 9) was 0.25 µg/mL (≈ 1.46 µM) and the MIC (C. difficile NR-13427, Table 9) was 1 µg/mL (≈ 5.84 µM). For the same molecule, the MIC (C. difficile NR-13428, Table 9) was 1 µg/mL (≈ 5.84 µM), the MIC (C. difficile NR-13429, Table 9) was 1 µg/mL (≈ 5.84 µM) and the MIC (C. difficile NR-13430, Table 9) was 0.5 µg/mL (≈ 2.92 µM). For the same molecule, the MIC (C. difficile NR-13431, Table 9) was 0.5 µg/mL (≈ 2.92 µM), the MIC (C. difficile NR-13433, Table 9) was 0.5 µg/mL (≈ 2.92 µM) and the MIC (C. difficile NR-13434, Table 9) was 0.5 µg/mL (≈ 2.92 µM). It also gave an MIC (C. difficile NR-13435, Table 9) of 0.5 µg/mL (≈ 2.92 µM), an MIC (C. difficile NR-13436, Table 9) of 0.5 µg/mL (≈ 2.92 µM) and an MIC (C. difficile NR-13437, Table 9) of 0.5 µg/mL (≈ 2.92 µM). It also gave an MIC (C. difficile NR-13438, Table 9) of 0.5 µg/mL (≈ 2.92 µM), an MIC (C. difficile NR-13553, Table 9) of 0.5 µg/mL (≈ 2.92 µM) and an MIC (C. difficile NR-32882, Table 9) of 0.25 µg/mL (≈ 1.46 µM). For the same molecule, the MIC (C. difficile NR-32883, Table 9) was 0.5 µg/mL (≈ 2.92 µM), the MIC (C. difficile NR-32884, Table 9) was 0.5 µg/mL (≈ 2.92 µM) and the MIC (C. difficile NR-32885, Table 9) was 0.5 µg/mL (≈ 2.92 µM). For the same molecule, the MIC (C. difficile NR-32886, Table 9) was 0.5 µg/mL (≈ 2.92 µM), the MIC (C. difficile NR-32887, Table 9) was 2 µg/mL (≈ 11.7 µM) and the MIC (C. difficile NR-32888, Table 9) was 0.5 µg/mL (≈ 2.92 µM). It also gave an MIC (C. difficile NR-32889, Table 9) of 2 µg/mL (≈ 11.7 µM), an MIC (C. difficile NR-32890, Table 9) of 0.5 µg/mL (≈ 2.92 µM) and an MIC (C. difficile NR-32891, Table 9) of 0.25 µg/mL (≈ 1.46 µM). The MIC (C. difficile NR-32892, Table 9) was 0.5 µg/mL (≈ 2.92 µM), the MIC (C. difficile NR-32895, Table 9) was 1 µg/mL (≈ 5.84 µM) and the MIC (C. difficile NR-32896, Table 9) was 1 µg/mL (≈ 5.84 µM). It also gave an MIC (C. difficile NR-32897, Table 9) of 0.5 µg/mL (≈ 2.92 µM) and an MIC (C. difficile NR-32900, Table 9) of 1 µg/mL (≈ 5.84 µM).
